Reference: US9409907B2, “Inhibitor compounds” (Cancer Research Technology Limited, priority 2012, dated 2016)

biological target: full length MPS1 (Homo sapiens (Human), UniProt P33981); test: Measurement of inhibition of MPS1 kinase (Caliper EZ reader mobility-shift enzyme assay); assay type: biochemical; conditions: full length MPS1 12.5 nM or 3 nM, H236 peptide 5 μM, ATP 10 μM, 60 min at room temperature
Experimental: Measurement of Inhibition of MPS1 Kinase
The reaction was carried out for 60 min at room temperature and stopped by the addition of buffer (10 μl) containing 20 mM EDTA, 0.05% (v/v) Brij-35, in 0.1M HEPES-buffered saline (Free acid, Sigma, UK). The plate was read on a Caliper EZ reader II (Caliper Life Sciences).
The % inhibition of the compounds is calculated relative to the means of selected control wells.

Sequence of full length MPS1 (P33981 whole entry): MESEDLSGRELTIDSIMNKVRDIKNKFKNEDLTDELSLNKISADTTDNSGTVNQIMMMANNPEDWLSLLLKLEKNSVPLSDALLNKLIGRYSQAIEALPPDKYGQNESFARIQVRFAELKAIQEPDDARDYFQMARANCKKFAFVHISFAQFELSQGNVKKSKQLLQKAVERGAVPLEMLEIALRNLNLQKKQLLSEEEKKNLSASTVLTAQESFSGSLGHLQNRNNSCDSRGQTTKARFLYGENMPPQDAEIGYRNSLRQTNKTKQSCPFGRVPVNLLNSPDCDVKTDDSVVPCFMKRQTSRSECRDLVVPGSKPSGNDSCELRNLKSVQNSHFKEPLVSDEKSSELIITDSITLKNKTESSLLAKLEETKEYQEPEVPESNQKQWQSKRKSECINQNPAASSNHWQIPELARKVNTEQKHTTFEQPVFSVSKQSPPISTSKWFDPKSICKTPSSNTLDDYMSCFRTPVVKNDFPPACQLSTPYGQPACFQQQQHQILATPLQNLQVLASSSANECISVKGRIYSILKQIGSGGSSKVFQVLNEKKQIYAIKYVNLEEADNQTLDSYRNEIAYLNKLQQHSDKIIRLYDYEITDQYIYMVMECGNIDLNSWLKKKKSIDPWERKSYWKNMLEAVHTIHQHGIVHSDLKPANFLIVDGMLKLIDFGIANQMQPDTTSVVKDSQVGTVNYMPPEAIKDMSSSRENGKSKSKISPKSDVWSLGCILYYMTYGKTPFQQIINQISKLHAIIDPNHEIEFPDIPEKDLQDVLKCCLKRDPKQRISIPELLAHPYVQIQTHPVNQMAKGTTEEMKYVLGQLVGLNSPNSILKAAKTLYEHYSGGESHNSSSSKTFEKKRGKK

SMILES	IC50
COc1cc(-c2cnn(C)c2)ccc1Nc1ncc2ccnc(N3CCCC4(COC4)C3)c2n1 [Example 123, N-(2-methoxy-4-(1-methyl-1H-pyrazol-4-yl)phenyl)-8-(2-oxa-6-azaspiro[3.5]nonan-6-yl)pyrido[3,4-d]pyrimidin-2-amine]	11 nM
COc1cc(-c2cnn(C)c2)ccc1Nc1cc2c(-c3cnn(C)c3)cccc2cn1 [Example 16, N-(2-methoxy-4-(1-methyl-1H-pyrazol-4-yl)phenyl)-5-(1-methyl-1H-pyrazol-4-yl)isoquinolin-3-amine]	71 nM
CC(C)(C)CNc1nccc2cnc(Nc3ccc(N4CCOCC4)cc3Cl)nc12 [Example 174, N2-(2-chloro-4-morpholinophenyl)-N8-neopentylpyrido[3,4-d]pyrimidine-2,8-diamine]	10 nM
COc1cc(-c2cnn(C)c2)ccc1Nc1ncc2ccnc(NCCC(C)C)c2n1 [Example 60, N8-isopentyl-N2-(2-methoxy-4-(1-methyl-1H-pyrazol-4-yl)phenyl)pyrido[3,4-d]pyrimidine-2,8-diamine]	21 nM
CN(C)C(=O)c1ccc(Nc2cc3c(-c4cnn(C)c4)cccc3cn2)c(Cl)c1 [Example 26]	78 nM
COc1cc(-c2cnn(C)c2)ccc1Nc1ncc2ccnc(NC3(C)CCCCC3)c2n1 [Example 83, N2-(2-methoxy-4-(1-methyl-1H-pyrazol-4-yl)phenyl)-N8-(1-methylcyclohexyl)pyrido[3,4-d]pyrimidine-2,8-diamine]	19 nM
Clc1cc(-c2cncnc2)ccc1Nc1ncc2ccnc(N3CCC4(COC4)C3)c2n1 [Example 200]	6 nM
COc1cc(-c2cnn(C)c2)ccc1Nc1ncc2ccnc(N3CCN(C)CC3)c2n1 [Example 62, N-(2-methoxy-4-(1-methyl-1H-pyrazol-4-yl)phenyl)-8-(4-methylpiperazin-1-yl)pyrido[3,4-d]pyrimidin-2-amine]	9 nM
COc1cc(-c2cnn(C)c2)ccc1Nc1ncc2ccnc(-c3cncnc3)c2n1 [Example 208, N-(2-methoxy-4-(1-methyl-1H-pyrazol-4-yl)phenyl)-8-(pyrimidin-5H)pyrido[3,4-d]pyrimidin-2-amine]	200 nM
COc1cc(C2CCOCC2)ccc1Nc1ncc2ccnc(NCC3(C)CCOC3)c2n1 (stereo not shown) [Example 154, N^2-(2-methoxy-4-(tetrahydro-2H-pyran-4-yl)phenyl)-N^8-((3-methyltetrahydrofuran-3-yl)methyl)pyrido[3,4-d]pyrimidine-2,8-diamine]	7 nM
COc1cc(-c2cnn(C)c2)ccc1Nc1ncc2ccnc(NC(C)(C)CO)c2n1 [Example 114]	17 nM
COCC(C)(C)CNc1nccc2cnc(Nc3ccc(-c4cnn(C)c4)cc3OC)nc12 [Example 85, N8-(3-methoxy-2,2-dimethylpropyl)-N2-(2-methoxy-4-(1-methyl-1H-pyrazol-4-yl)phenyl)pyrido[3,4-d]pyrimidine-2,8-diamine]	24 nM
CCOc1cc(-c2nncn2C)ccc1Nc1ncc2ccnc(NCC3(C)CCOC3)c2n1 (stereo not shown) [Example 189]	1 nM
COc1cc(-c2cnn(C)c2)ccc1Nc1ncc2ccnc(NC(C)C3CCOC3)c2n1 (racemic) [Example 125, Racemic N^2-(2-methoxy-4-(1-methyl-1H-pyrazol-4-yl)phenyl)-N^8-(1-(tetrahydrofuran-3-yl)ethyl)pyrido[3,4-d]pyrimidine-2,8-diamine]	3 nM
COc1cc(-c2nncn2C)ccc1Nc1ncc2c(C)cnc(NCC3(C)COC3)c2n1 [Example 155, N^2-(2-methoxy-4-(4-methyl-4H-1,2,4-triazol-3-yl)phenyl)-5-methyl-N^8-((3-methyloxetan-3-yl)methyl)pyrido[3,4-d]pyrimidine-2,8-diamine]	4 nM
COc1cc(-c2cncn2C)ccc1Nc1ncc2ccnc(NCC(C)(C)C)c2n1 [Example 47, N2-(2-methoxy-4-(1-methyl-1H-imidazol-5-yl)phenyl)-N8-neopentylpyrido[3,4-d]pyrimidine-2,8-diamine]	2 nM
COc1cc(-c2cnn(C)c2)ccc1Nc1ncc2ccnc(NCC(C)(C)OC)c2n1 [Example 86, N8-(2-methoxy-2-methylpropyl)-N2-(2-methoxy-4-(1-methyl-1H-pyrazol-4-yl)phenyl)pyrido[3,4-d]pyrimidine-2,8-diamine]	5 nM
COc1cc(-c2cnn(C)c2)ccc1Nc1ncc2ccnc(NCC(F)(F)F)c2n1 [Example 87, N2-(2-methoxy-4-(1-methyl-1H-pyrazol-4-yl)phenyl)-N8-(2,2,2-trifluoroethyl)pyrido[3,4-d]pyrimidine-2,8-diamine]	75 nM
COc1cc(-c2cnn(C)c2)ccc1Nc1ncc2ccnc(N3CCC(OC)CC3)c2n1 [Example 138, N-(2-Methoxy-4-(1-methyl-1H-pyrazol-4-yl)phenyl)-8-(4-methoxypiperidin-1-yl)pyrido[3,4-d]pyrimidin-2-amine]	8 nM

SMILES	IC50
Cn1cc(-c2cccc3cnc(Nc4ccc(-c5cncn5C)cc4Cl)cc23)cn1 [Example 17, N-(2-chloro-4-(1-methyl-1H-imidazol-5-yl)phenyl)-5-(1-methyl-1H-pyrazol-4-yl)isoquinolin-3-amine]	51 nM
COc1cc(-c2cnn(C)c2)ccc1Nc1ncc2ccnc(N(C)C3CCCC3)c2n1 [Example 59, N8-cyclopentyl-N2-(2-methoxy-4-(1-methyl-1H-pyrazol-4-yl)phenyl)-N8-methylpyrido[3,4-d]pyrimidine-2,8-diamine]	45 nM
COc1cc(-c2cnn(C)c2)ccc1Nc1ncc2ccnc(NC3CCCC3)c2n1 [Example 39]	7 nM
COc1cc(-c2cnn(C)c2C)ccc1Nc1ncc2ccnc(N3CCC4(COC4)C3)c2n1 [Example 145, N-(4-(1,5-dimethyl-1H-pyrazol-4-yl)-2-methoxyphenyl)-8-(2-oxa-6-azaspiro[3.4]octan-6-yl)pyrido[3,4-d]pyrimidin-2-amine]	2 nM
COc1cc(-c2nncn2C)ccc1Nc1ncc2c(C)cnc(N3CC4(CCOC4)C3)c2n1 [Example 157, N-(2-methoxy-4-(4-methyl-4H-1,2,4-triazol-3-yl)phenyl)-5-methyl-8-(6-oxa-2-azaspiro[3.4]octan-2-yl)pyrido[3,4-d]pyrimidin-2-amine]	6 nM
COC(C)(C)CNc1nccc2cnc(Nc3ccc(Cl)cc3OC(F)F)nc12 [Example 202]	70 nM
COc1cc(N2CCC(C(=O)N3CCOCC3)CC2)ccc1Nc1ncc2ccnc(NCC(C)(C)C)c2n1 [Example 172, (1-(3-methoxy-4-((8-(neopentylamino)pyrido[3,4-d]pyrimidin-2-yl)amino)phenyl)piperidin-4-yl)(morpholino)methanone]	12 nM
COc1cc(-c2cnn(C)c2)ccc1Nc1ncc2ccnc(NCC3CCO3)c2n1 (stereo not shown) [Example 116, N^2-(2-methoxy-4-(1-methyl-1H-pyrazol-4-yl)phenyl)-N8-(oxetan-2-ylmethyl)pyrido[3,4-d]pyrimidine-2,8-diamine]	8 nM
COc1cc(-c2cnn(C)c2)ccc1Nc1ncc2ccnc(N(C)C3CCOCC3)c2n1 [Example 81, N2-(2-methoxy-4-(1-methyl-1H-pyrazol-4-yl)phenyl)-N8-methyl-N8-(tetrahydro-2H-pyran-4-yl)pyrido[3,4-d]pyrimidine-2,8-diamine]	33 nM
COc1cc(-c2cnn(C)c2)ccc1Nc1ncc2ccnc(N3CCOC(CO)C3)c2n1 (stereo not shown) [Example 135, (4-(2-(2-Methoxy-4-(1-methyl-1H-pyrazol-4-yl)phenylamino)pyrido[3,4-d]pyrimidin-8-yl)morpholin-2-yl)methanol]	4 nM
COc1nc(-c2cnnn2C)ccc1Nc1ncc2ccnc(NCC(C)(C)OC)c2n1 [Example 166, N^8-(2-Methoxy-2-methylpropyl)-N^2-(2-methoxy-6-(1-methyl-1H-1,2,3-triazol-5-yl)pyridin-3-yl)pyrido[3,4-d]pyrimidine-2,8-diamine]	3 nM
COc1cc(-c2nncn2C)ccc1Nc1ncc2c(C)cnc(NCC(C)(C)OC)c2n1 [Example 150, N^8-(2-methoxy-2-methylpropyl)-N^2-(2-methoxy-4-(4-methyl-4H-1,2,4-triazol-3-yl)phenyl)-5-methylpyrido[3,4-d]pyrimidine-2,8-diamine]	3 nM
COc1nc(-c2cnn(C)c2C)ccc1Nc1ncc2ccnc(NCC(C)(C)OC)c2n1 [Example 165, N^2-(6-(1,5-dimethyl-1H-pyrazol-4-yl)-2-methoxypyridin-3-yl)-N^8-(2-methoxy-2-methylpropyl)pyrido[3,4-d]pyrimidine-2,8-diamine]	3 nM
COc1cc(-c2cnn(C)c2)ccc1Nc1ncc2ccnc(NC3CCN(C)CC3)c2n1 [Example 113, N^2-(2-methoxy-4-(1-methyl-1H-pyrazol-4-yl)phenyl)-N^8-(1-methylpiperidin-4-yl)pyrido[3,4-d]pyrimidine-2,8-diamine]	9 nM
CCn1cc(-c2ccc(Nc3ncc4ccnc(NCC(C)(C)OC)c4n3)c(OC)c2)cn1 [Example 152, N^2-(4-(1-ethyl-1H-pyrazol-4-yl)-2-methoxyphenyl)-N^8-(2-methoxy-2-methylpropyl)pyrido[3,4-d]pyrimidine-2,8-diamine]	7 nM
COc1cc(C(=O)N2CC(OC)C2)ccc1Nc1ncc2ccnc(NCC(C)(C)C)c2n1 [Example 153, (3-methoxy-4-(8-(neopentylamino)pyrido[3,4-d]pyrimidin-2-ylamino)phenyl)(3-methoxyazetidin-1-yl)methanone]	4 nM
COc1cc(-c2cncn2C)ccc1Nc1cc2c(-c3cnn(C)c3)cccc2cn1 [Example 14, N-(2-methoxy-4-(1-methyl-1H-imidazol-5-yl)phenyl)-5-(1-methyl-1H-pyrazol-4-yl)isoquinolin-3-amine]	7 nM
COc1cc(-c2cnn(C)c2)ccc1Nc1ncc2ccnc(NS(=O)(=O)C(C)(C)C)c2n1 [Example 107, N-(2-(2-methoxy-4-(1-methyl-1H-pyrazol-4-yl)phenylamino)pyrido[3,4-d]pyrimidin-8-yl)-2-methylpropane-2-sulfonamide]	39 nM
